Measurements published in PMC7367283, “A PIP2 substitute mediates voltage sensor-pore coupling in KCNQ activation” (Communications Biology, 2020).
Values joined by “and” are separate entries in the source; they are usually repeats but may differ in a detail not shown here. Identical values can stand only once.

Target: IKs (KCNQ1 + KCNE1) (Homo sapiens, UniProt P51787)
Experiment: Two-electrode voltage clamp of IKs channels expressed in Xenopus oocytes
Assay type: cell-based
Parameters: key to G/Gcontrol(max): conductance / max control conductance (control max = 1)
Conditions: for Current: Fig. 4g; for ∆V1/2 of activation induced by CP1 (mean): Fig. 4i dose response; for G/Gcontrol(max): Fig. 4h
Description: Our previous studies have shown that the VSD of KCNQ1 activates to an intermediate state (I state) and an activated state (A state) upon membrane depolarization, and the pore can open when VSD is at either the intermediate (IO state) or activated (AO state)[23],[24]. The association of the auxiliary subunit KCNE1 with KCNQ1 affects VSD-pore coupling to suppress the IO state and enhance the AO state. Correspondingly, the association of KCNE1 also increases the PIP2 sensitivity of the channel[24],[37]. […] The most prominent effect of CP1 is to dramatically slow the deactivation of IKs, such that at 2 µM CP1, it took a 100-s interval at −120 mV for all the channels to deactivate from their previous activation (Fig. 4a). The application of 2 µM CP1 shifted the G–V relation to more negative voltages by ~13 mV (Fig. 4b). […] A fraction of the constitutively open channels might have been open during the previous test pulses and not deactivated during the shorter and less-hyperpolarized interval pulse to cause a current accumulation. […] In higher concentrations of CP1, we were not able to suppress the constitutive opening of KCNQ1 channels even with long and negative interval voltages, so that we used 20-s and −80-mV interval pulses in the recordings (Fig. 4e). […] In comparison with KCNQ1 expressed alone, CP1 caused a larger shift of the G–V relationship when KCNE1 was co-expressed (Fig. 4i). Since the IKs currents were difficult to measure accurately at high CP1 concentrations, we were unable to determine the EC50 of the channel response to CP1.
Fig. 4 Effects of CP1 on IKs channels. a, b IKs currents in the absence (left) and presence of 2 µM CP1 (right) recorded with 100-s and −120-mV interval pulses between testing voltages. Holding potential: −80 mV; testing potential: −120 to +80 mV; returning potential: −40 mV (a). G–V relations (b). c, d IKs recorded at the same conditions as in (a), except for the interval pulses, was 20 s at −80 mV. e, f IKs in the absence or presence of 10 µM CP1. The voltage protocol was the same as in (b). g, h Current (g) and relative conductance (h) increases of IKs channels by 10 µM CP1. In h, the measured conductance in CP1 at all voltages was divided by the maximum measured conductance in control, and then normalized with the maximum measured conductance in control being 1. i Dose response for ΔV1/2 of G–V relations to different CP1 concentrations as compared with those of KCNQ1 (dashed line).
The use of Xenopus laevis to obtain oocytes was approved by the Washington University Animal Studies Committee (protocol #20190030). Oocytes were manually dispersed and digested with collagenase (0.5 mg/ml, Sigma-Aldrich, Saint Louis, MO) to remove the follicle cell layer. Stage V or VI oocytes were selected and injected with cRNAs (9.2 ng) of channel or mutations. Especially, to characterize IKs, a mix of cRNAs at a molar ratio 4:1 (KCNQ1:KCNE1) was injected. For KCNQ2/KCNQ3, the molar ratio was 1:1 (KCNQ2:KCNQ3). For sodium channels, a 3:1 molar ratio (β1:NaV1.5) and for calcium channels a weight ratio 1:1:1 (β1:α2/δ1:CaV1.2) was injected, respectively. Injected oocytes were incubated in ND96 solution containing (in mM) 96 NaCl, 2 KCl, 1.8 CaCl2, 1 MgCl2, and 5 HEPES, pH 7.6, supplemented with 2.5 mM Na pyruvate and 1% penicillin–streptomycin, at 18 °C for 3–7 days before recording.
The whole-oocyte ionic currents were recorded with a GeneClamp 500B amplifier (Axon Instruments, CA) or iTEV90 amplifier (HEKA, Germany) and then sampled at 1 kHz and low-pass-filtered at 2 kHz. The Patchmaster software (HEKA, Germany) was used to acquire data. The Kir1.1 current was recorded with a high K^+ bath solution containing (in mM) 96 KCl, 4 NaCl, 1 CaCl2, 2 MgCl2, and 10 HEPES, pH 7.3–7.4. The HCN4 current was recorded in ND66 solution containing (in mM) 66 NaCl, 32 KCl, 1.8 CaCl2, 1 MgCl2, and 5 HEPES, pH 7.6. All the other potassium channels were recorded in ND96 solution. […]

## O=S(=O)([O-])Oc1c(-c2sc3c(ccc4cccc(Cl)c43)c2OS(=O)(=O)[O-])[nH]c2ccc(Br)cc12.[Na+].[Na+] [CP1, DISODIUM 5-BROMO-2-[9-CHLORO-3-(SULFONATOOXY) NAPHTHO [1,2-B] THIEN-2-YL]-1H-INDOL-3-YL SULFATE]
2 µM CP1, 20-s and −80-mV interval pulses
  shift of G–V relation: ~ 12 mV
2 µM CP1, 100-s and −120-mV interval pulses
  shift of G–V relation to more negative voltages: ~ 13 mV
10 µM CP1, Q1/E1, at +40 mV, individual oocytes
  outward current (Icp1/Ictrl): 3.3641 and 3.7408 and 2.3715 and 2.9989 and 4.6393
10 µM CP1, Q1/E1, individual oocytes
  ∆V1/2: 64.6738 mV and 84.3167 mV and 109.16 mV and 34.9084 mV and 123.145 mV
10 µM CP1 treated, Q1/E1, individual oocytes
  τ deact at -120 mV: 3.5736 s and 3.9322 s and 2.999 s and 3.0124 s and 2.7649 s and 3.45 s and 3.7957 s
Fig. 4b, 2 µM CP1, 0 mV
  G/Gmax Mean: 0.3833
Fig. 4b, 2 µM CP1, 20 mV
  G/Gmax Mean: 0.7035
Fig. 4b, 2 µM CP1, 40 mV
  G/Gmax Mean: 0.9619
Fig. 4b, 2 µM CP1, 60 mV
  G/Gmax Mean: 1.0000
Fig. 4b, 2 µM CP1, -20 mV
  G/Gmax Mean: 0.1567
Fig. 4b, 2 µM CP1, -40 mV
  G/Gmax Mean: 0.0500
Fig. 4b, 2 µM CP1, -60 mV
  G/Gmax Mean: 0.0188
Fig. 4b, 2 µM CP1, -80 mV
  G/Gmax Mean: 0.0090
Fig. 4b, 2 µM CP1, -100 mV
  G/Gmax Mean: 0.0050
Fig. 4b, 2 µM CP1, -120 mV
  G/Gmax Mean: 0.0140
Fig. 4f, 10 µM CP1, 0 mV
  G/Gmax Mean: 0.9498
Fig. 4f, 10 µM CP1, 10 mV
  G/Gmax Mean: 0.9622
Fig. 4f, 10 µM CP1, 20 mV
  G/Gmax Mean: 0.9768
Fig. 4f, 10 µM CP1, 30 mV
  G/Gmax Mean: 0.9888
Fig. 4f, 10 µM CP1, 40 mV
  G/Gmax Mean: 0.9959
Fig. 4f, 10 µM CP1, 50 mV
  G/Gmax Mean: 1.0000
Fig. 4f, 10 µM CP1, 60 mV
  G/Gmax Mean: 0.9995
Fig. 4f, 10 µM CP1, 70 mV
  G/Gmax Mean: 0.9975
Fig. 4f, 10 µM CP1, 80 mV
  G/Gmax Mean: 0.9882
Fig. 4f, 10 µM CP1, -10 mV
  G/Gmax Mean: 0.9293
Fig. 4f, 10 µM CP1, -20 mV
  G/Gmax Mean: 0.9108
Fig. 4f, 10 µM CP1, -30 mV
  G/Gmax Mean: 0.8947
Fig. 4f, 10 µM CP1, -40 mV
  G/Gmax Mean: 0.8796
Fig. 4f, 10 µM CP1, -50 mV
  G/Gmax Mean: 0.8652
Fig. 4f, 10 µM CP1, -60 mV
  G/Gmax Mean: 0.8490
Fig. 4f, 10 µM CP1, -70 mV
  G/Gmax Mean: 0.8309
Fig. 4f, 10 µM CP1, -80 mV
  G/Gmax Mean: 0.8109
Fig. 4f, 10 µM CP1, -90 mV
  G/Gmax Mean: 0.7850
Fig. 4f, 10 µM CP1, -100 mV
  G/Gmax Mean: 0.7801
Fig. 4f, 10 µM CP1, -110 mV
  G/Gmax Mean: 0.7703
Fig. 4f, 10 µM CP1, -120 mV
  G/Gmax Mean: 0.7614
10 µM CP1, 0 mV
  Current: 11.3690 µA
  G/Gcontrol(max): 2.2457
10 µM CP1, 10 mV
  Current: 13.1145 µA
  G/Gcontrol(max): 2.2822
10 µM CP1, 20 mV
  Current: 14.8276 µA
  G/Gcontrol(max): 2.3257
10 µM CP1, 30 mV
  Current: 16.4399 µA
  G/Gcontrol(max): 2.3635
10 µM CP1, 40 mV
  Current: 17.8196 µA
  G/Gcontrol(max): 2.3895
10 µM CP1, 50 mV
  Current: 18.8339 µA
  G/Gcontrol(max): 2.4063
10 µM CP1, 60 mV
  Current: 19.4658 µA
  G/Gcontrol(max): 2.4120
10 µM CP1, 70 mV
  Current: 19.7856 µA
  G/Gcontrol(max): 2.4121
10 µM CP1, 80 mV
  Current: 19.9691 µA
  G/Gcontrol(max): 2.3902
10 µM CP1, -10 mV
  Current: 9.6451 µA
  G/Gcontrol(max): 2.1869
10 µM CP1, -20 mV
  Current: 8.0042 µA
  G/Gcontrol(max): 2.1346
10 µM CP1, -30 mV
  Current: 6.4510 µA
  G/Gcontrol(max): 2.0892
10 µM CP1, -40 mV
  Current: 5.0169 µA
  G/Gcontrol(max): 2.0471
10 µM CP1, -50 mV
  Current: 3.6974 µA
  G/Gcontrol(max): 2.0074
10 µM CP1, -60 mV
  Current: 2.5078 µA
  G/Gcontrol(max): 1.9645
10 µM CP1, -70 mV
  Current: 1.4333 µA
  G/Gcontrol(max): 1.9185
10 µM CP1, -80 mV
  Current: 0.5290 µA
  G/Gcontrol(max): 1.8692
10 µM CP1, -90 mV
  Current: -0.3014 µA
  G/Gcontrol(max): 1.8061
10 µM CP1, -100 mV
  Current: -0.9865 µA
  G/Gcontrol(max): 1.7954
10 µM CP1, -110 mV
  Current: -1.5545 µA
  G/Gcontrol(max): 1.7738
10 µM CP1, -120 mV
  Current: -2.0910 µA
  G/Gcontrol(max): 1.7540
[CP1] 1 µM
  ∆V1/2 of activation induced by CP1 (mean): 14.4504 mV
[CP1] 2 µM
  ∆V1/2 of activation induced by CP1 (mean): 15.8525 mV
[CP1] 3 µM
  ∆V1/2 of activation induced by CP1 (mean): 21.4391 mV
[CP1] 5 µM
  ∆V1/2 of activation induced by CP1 (mean): 41.6182 mV
[CP1] 6 µM
  ∆V1/2 of activation induced by CP1 (mean): 46.8783 mV
[CP1] 10 µM
  ∆V1/2 of activation induced by CP1 (mean): 97.2701 mV
[CP1] 15 µM
  ∆V1/2 of activation induced by CP1 (mean): 120.8217 mV
[CP1] 20 µM
  ∆V1/2 of activation induced by CP1 (mean): 143.8484 mV
[CP1] 25 µM
  ∆V1/2 of activation induced by CP1 (mean): 174.0381 mV
Fig. 4d, 2 µM CP1, 0 mV
  G/Gmax Mean: 0.2264
Fig. 4d, 2 µM CP1, 20 mV
  G/Gmax Mean: 0.4604
Fig. 4d, 2 µM CP1, 40 mV
  G/Gmax Mean: 0.7375
Fig. 4d, 2 µM CP1, 60 mV
  G/Gmax Mean: 0.9406
Fig. 4d, 2 µM CP1, 80 mV
  G/Gmax Mean: 1.0000
Fig. 4d, 2 µM CP1, -20 mV
  G/Gmax Mean: 0.0874
Fig. 4d, 2 µM CP1, -40 mV
  G/Gmax Mean: 0.0291
Fig. 4d, 2 µM CP1, -60 mV
  G/Gmax Mean: 0.0147
Fig. 4d, 2 µM CP1, -80 mV
  G/Gmax Mean: 0.0247
Fig. 4d, 2 µM CP1, -100 mV
  G/Gmax Mean: 0.0692
